Holding throughout (format): cell-based
Test [1] addresses T1, OXE receptor (Homo sapiens, UniProt Q8TDS5). Briefly: Neutrophil migration (chemotaxis) induced by 5-oxo-ETE, microchemotaxis chambers. Also on record: Human granulocytes 95% neutrophils) are prepared from whole blood; endogenous in cells; host or cells: human blood granulocytes (>=95% neutrophils). To be noted: 5-oxo-ETE 100 nM; human granulocytes; Table 2. The procedure: Cell migration is measured by the modified Boyden technique using 48-well microchemotaxis chambers and Sartorius cellulose nitrate filters (8 μm pore size; 140 μm thickness) as described previously (Powell et al., J Immunol 156: 336 (1996)). Granulocytes (≧95% neutrophils) are prepared as described above. Immediately prior to use the filters are soaked in PBS containing calcium (1 mM), magnesium (1 mM), and 0.3% BSA. Either vehicle (PBS containing Ca^++, Mg^++, and 0.3% BSA) or vehicle containing 5-oxo-ETE (100 nM final concentration) is added to the bottom well in a volume of 30 μl, whereas neutrophils (150,000 cells in 55 μl PBS containing Ca^++, Mg^++ and 0.4% ovalbumin) and either vehicle or various concentrations of a 5-oxo-ETE antagonist are added to each of the top wells. The chambers are incubated for 2 h at 37° C. in 5% CO2 and humidified air. […] The filters are mounted on slides with coverslips using Permount and the numbers of cells on the bottom surfaces of the filters are counted in 5 different fields at a magnification of 400× for each incubation, each of which is performed in triplicate. In cases in which there are large numbers of cells on the bottom surfaces of the filters only quarter or half fields are counted and the results corrected accordingly.

For test [2], the target named is T1, OXE receptor. Briefly: 5-oxo-ETE-induced actin polymerization (F-actin levels) in eosinophils. Also on record: endogenous in cells. To be noted: 5-oxo-ETE 10 nM, Table 2. As for the experimental part: F-actin levels in eosinophils are measured using unfractionated leukocytes, prepared as described above. Leukocytes (5×10^7 cells/ml) are treated with PC5-labeled mouse anti-human CD16 (10 μl/10^6 cells; Beckman-Coulter) for 30 min on ice. PBS (2 ml/10^6 cells) is then added and the mixture centrifuged at 200×g for 10 min. The pellet is resuspended in ice cold PBS containing Ca^++ (1.8 mM) and Mg^++ (1 mM) to give a concentration of 5×10^6 cells/ml. Aliquots (90 μl) of the leukocyte suspension are first incubated at 37° C. with either vehicle (10 μl PBS containing Ca^++ and Mg^++ and 0.1% BSA) or vehicle containing a 5-oxo-ETE antagonist. After 5 min, either vehicle or vehicle containing 5-oxo-ETE (final concentration, 10 nM) is added and the incubation continued for a further 20 s. The incubations are then terminated by addition of formaldehyde (37%) to give a final concentration of 8.5%. […] F-actin levels are measured by flow cytometry in eosinophils, which are gated based on high side scatter and low staining with anti-CD16. F-actin levels in the eosinophil population are assessed on the basis of fluorescence due to staining with NBD-phallacidin.

Test [3] has as its target T1, OXE receptor. Briefly: 5-oxo-ETE-induced calcium mobilization in human granulocytes. Also on record: Human granulocytes 95% neutrophils) are prepared from whole blood; endogenous in cells; host or cells: human blood granulocytes (>=95% neutrophils). The procedure:
Primary Screening for Antagonist Activity: Calcium Mobilization in Human Granulocytes
Human granulocytes 95% neutrophils) are prepared from whole blood using Dextran 500 to remove red blood cells, followed by centrifugation over Ficoll-Paque to remove mononuclear cells and hypotonic lysis of any remaining red blood cells. After centrifugation the granulocytes are suspended in Ca^++/Mg^++-free phosphate-buffered saline (PBS). Granulocytes (10^7 cells/nil) are incubated with the acetoxymethyl ester of indo-1 ([…]) for 30 min, followed by washing twice with PBS^− and resuspension in the same medium to obtain a final cell concentration of 3.22×10^6 cells/ml. Five minutes prior to commencing data acquisition, Ca^++ and Mg^++ are added to give final concentrations of 1.8 and 1 mM, respectively. Calcium measurements are performed at 37° C. using a spectrofluorometer equipped with a temperature-controlled cuvette holder and a magnetic stirrer. The excitation and emission wavelengths are 331 nm and 410 nm, respectively. Following stabilization of the baseline, fluorescence is measured for 1 min, prior to the addition of either vehicle or various concentrations of a potential 5-oxo-ETE antagonist. Two min later, 5-oxo-ETE (10 nM) is added, followed 1 min later by digitonin (final concentration 0.1%). Data acquisition is terminated after a further 0.5 min. In some cases LTB4 (10 nM) is added 2 min after 5-oxo-ETE, followed 0.5 min later by addition of digitonin. Fmax is determined from fluorescence measurements after the addition of digitonin, whereas Fmin is determined after determination of autofluorescence as described in the literature (Gelfand et al, J. Biol. Chem. 261:11520 (1986)). A dissociation constant of 250 nM for the indo-1/Ca^++ complex is used to calculate [Ca^++]i. […] Measurement of Actin Polymerization in Eosinophils
A general note: A change in cytosolic calcium serves as a functional read-out for many receptors and channels.

In test [4] the test system is calcium mobilization in response to LTB4. Briefly: LTB4-induced calcium mobilization in human neutrophils. The conditions noted are these: compound 1 μM, LTB4 10 nM, FIG. 2. The procedure:
Human granulocytes 95% neutrophils) are prepared from whole blood using Dextran 500 to remove red blood cells, followed by centrifugation over Ficoll-Paque to remove mononuclear cells and hypotonic lysis of any remaining red blood cells. After centrifugation the granulocytes are suspended in Ca^++/Mg^++-free phosphate-buffered saline (PBS). Granulocytes (10^7 cells/nil) are incubated with the acetoxymethyl ester of indo-1 ([…]) for 30 min, followed by washing twice with PBS^− and resuspension in the same medium to obtain a final cell concentration of 3.22×10^6 cells/ml. Five minutes prior to commencing data acquisition, Ca^++ and Mg^++ are added to give final concentrations of 1.8 and 1 mM, respectively. Calcium measurements are performed at 37° C. using a spectrofluorometer equipped with a temperature-controlled cuvette holder and a magnetic stirrer. The excitation and emission wavelengths are 331 nm and 410 nm, respectively. Following stabilization of the baseline, fluorescence is measured for 1 min, prior to the addition of either vehicle or various concentrations of a potential 5-oxo-ETE antagonist. […] Fmax is determined from fluorescence measurements after the addition of digitonin, whereas Fmin is determined after determination of autofluorescence as described in the literature (Gelfand et al, J. Biol. Chem. 261:11520 (1986)). […]

Setting [5] is: 5-oxo-ETE 10 nM, human granulocytes, Table 2, read-out: IC50 (μM) Ca^++.
The mark [6] stands for this setting: Table 6, carboxyl side chain variation, readout not given, values match Ca^++, read-out: IC50.

Molecules are shown by their SMILES.

T1 sequence (Q8TDS5 whole entry): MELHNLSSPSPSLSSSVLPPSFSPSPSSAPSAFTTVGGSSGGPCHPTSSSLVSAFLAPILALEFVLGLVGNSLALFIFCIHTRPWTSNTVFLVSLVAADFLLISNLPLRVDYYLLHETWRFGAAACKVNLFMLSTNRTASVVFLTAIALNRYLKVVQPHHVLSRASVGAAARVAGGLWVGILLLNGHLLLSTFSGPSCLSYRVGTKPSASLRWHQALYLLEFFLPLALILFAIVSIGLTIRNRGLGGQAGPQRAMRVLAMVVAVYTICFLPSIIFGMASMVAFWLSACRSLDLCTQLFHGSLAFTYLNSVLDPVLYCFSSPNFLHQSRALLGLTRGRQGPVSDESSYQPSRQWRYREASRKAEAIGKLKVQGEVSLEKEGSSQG

One may read the IC50 as the concentration that gives 50% inhibition. In the case of `CCCCCCc1cc2ccccc2n1C(=O)CC(C)CC(=O)O` (centres unmarked) [Compound 2, 5-(2-Hexyl-indol-1-yl)-3-methyl-5-oxo-pentanoic acid], the IC50 on OXE receptor [1] was found to be 0.82 µM; against OXE receptor [2], 0.46 µM; at OXE receptor [3] (setting [5]), 0.09 µM; at OXE receptor [3] (setting [6]), 0.09 µM; at OXE receptor [3] (Table 7, alkyl variation, readout not given, values match Ca^++, read-out: IC50), 0.09 µM.
`CCCCCCc1c(C(=O)CC(C)CC(=O)O)c2cc(Cl)ccc2n1C` (racemic) [Compound 60, 5-(5-Chloro-2-hexyl-1-methyl-1H-indol-3-yl)-3-methyl-5-oxo-pentanoic acid]: the values for the IC50 against OXE receptor [1], against OXE receptor [2] and on OXE receptor [3] (setting [5]) were 0.11 µM, 0.072 µM and 0.025 µM, respectively. Moreover, the “effect on calcium mobilization in response to 5-oxo-ETE” value on OXE receptor [3] (compound 1 μM, 5-oxo-ETE 10 nM, human neutrophils, FIG. 2) is “completely blocked”. Further, the “effect on calcium mobilization in response to LTB4” value in test [4] was “not to LTB4”.
Turning to `CCCCCCc1cc2ccccc2n1C(=O)CCCC(=O)O` [Compound 1, 5-(2-Hexyl-indol-1-yl)-5-oxo-pentanoic acid], the IC50 on OXE receptor [3] (setting [5]) was determined as 1 µM; at OXE receptor [3] (Table 3, position of hexyl/hexenyl on the scaffold, readout not given, values match Ca^++, read-out: IC50), 1 µM; at OXE receptor [3] (Table 5, alkyl chain variation, readout not given, values match Ca^++, read-out: IC50) it was 1 µM; at OXE receptor [3] (setting [6]), 1 µM.

Values taken from US9464048B2, “5-oxo-ETE receptor antagonist compounds” (THE ROYAL INSTITUTION FOR THE ADVANCEMENT OF …, priority 2009, dated 2016).
